Source: patent US20120122966A1, “USE OF ORGANIC DYES AS ANALGESIC AGENTS” (priority 2009, published 2012)

Tests used:
Assay type in all cases: in vivo, human
[1] = system: renal cell carcinoma, lung and bone metastases, excruciating bone pain; test: Example 2: patient T., renal cell carcinoma with lung and bone metastases, bone pain, treated with crystal violet
Procedure: Patient four. Three years ago, the left kidney was removed, and preventive chemotherapy was administered for renal cell carcinoma. In a CT examination, a 2.5×2.4×2.3 cm tumor-like mass in the right kidney projection, three round tumor-like masses from 2.6 to 2.3 cm in diameter in the left lung, and numerous bone metastases. Grave condition, dyspnea, cyanosis, […]. Complaints of excruciating bone pain. […] Treatment prescribed, including the use of an antitumor medicinal preparation. The preparation, crystal violet, was administered by mouth as a potion-16 drops of a 1% solution three times a day, and as microclysters. After 7 days of treatment, dyspnea abated, and the pain syndrome disappeared. Blood tests against the background of treatment have normalized over 3 weeks. Then, the course was repeated using crystal violet preparation which was administered into rectum in the form of 1% suppositories and by inhaling, for 12 months with half-month long breaks. During the therapy the right kidney tumor and lung metastases disappeared. No pain. Weight restored.

[2] = system: poorly differentiated pulmonary adenocarcinoma, MTS to the brain and skeleton bones, pain syndrome; test: Example 1: patient V., pulmonary adenocarcinoma with MTS, pain syndrome, treated with gentian violet
Procedure: Patient six. Diagnosis: poorly differentiated pulmonary adenocarcinoma. MTS [expansion not given; possibly metastases] to the brain and skeleton bones. Cachexia. Pain syndrome. Relatives state that over the last two months the patient has been receiving 5.0 ml of heroin intravenously three times a day. Otherwise, they note resumption of pronounced excruciating pain. In CT, several tumor-like masses in the mediastinum and left lung, average size 3.9×3.6×3.2 cm. Grave condition, dyspnea, cyanosis, adynamia, and sensations of pain, getting stronger when coughing. Treatment was prescribed that included the use of medicinal preparations with antineoplastic action—an organic dye, a 1% gentian violet solution. The first course of treatment using the preparation—15 drops of a 1% solution in a glass of water three times a day by mouth, additionally a microclyster—10 drops of a 1% solution in 30 ml of water at lunch, and q.h.s. a 1% suppository with the preparation. […] On the third week of treatment with the preparation the patient's condition improved. […] The lung tumor size dropped to 2.1×2.2×2.2 cm. After six months of treatment the tumor size dropped to 0.3×0.4×1.0 cm. […] Blood tests against the background of treatment have normalized.

[3] = system: pancreas head blastoma, pain; test: Example 5: patient Z., pancreas head blastoma with neck lymph node metastases, pain, treated with gentian violet
From the text: Patient two. […] Started chemotherapy. After three weeks the condition began rapidly deteriorating, accompanied by extreme weight loss—from 95 kg to 72 kg. Pain became considerably more severe. Stomach pain occurs before having a meal, i.e. after having a meal the pain is lower. At the same time stool was lightly yellow—very light color. The patient had been taking an analgesic—ketanol—infrequently, but lately has been taking it two times a day. […] Immediately after the end of the first course of phthorafurum the patient began taking gentian violet preparation, 3 mg per 50 kg of weight two times a day.

[4] = system: osteoarthrosis pain; test: Example 7: patient T., osteoarthrosis with joint deformation, permanent pain
Procedure: Patient four. Complaints of not being able to raise their right arm above the shoulder level. In CT, effects of osteoarthrosis with joint deformation were noticed. Taking analgesic preparations turned out to be ineffective. Pain became permanent. Gentian violet preparation was prescribed, 0.0004 mg/kg of weight once a day.

[5] = system: bladder cancer, metastases in pelvic bones, pain; test: Example 3: patient L., bladder cancer with pelvic bone metastases, treated with malachite green oxalate
Procedure: Patient one. Diagnosis: bladder cancer. Metastases in pelvic bones. Three years ago bladderectomy was performed for cancer. Complaints of pain, bloody urine, frequent urination and pelvic bone pains. In CT, a 2×2×2 cm tumor-like mass in the projection of the mouth of the right ureter and a 1.5×1.1×0.9 cm in the projection of the mouth of the left ureter. In the wing of the left illium two tumor-like masses with irregular contours, 1.5 to 2.5 cm in diameter. Medium severity condition, skin integument pallor, blood in urine. […] Began treatment with the preparation—20 drops of a 1% solution of malachite green oxalate in half a glass of water by mouth and in the form of microclysters. […] The course had lasted for 4 months. […] Biphosphonates were prescribed for replacement therapy.

[6] = system: metastasizing melanoma of the right forearm, metastases to the liver, pain; test: Example 4: patient D., metastasizing melanoma, treated with malachite green oxalate
Procedure: Patient three. Diagnosis: metastasizing melanoma of the right forearm. Metastases to the liver and right eye. Three years ago melanoma resection was performed. A year and a half later gripes appeared in the right eye. Eye enucleation for metastasis was performed. In the examination of the internal organs, a 4×5×4 cm metastasis in the liver was detected. At the same time, relapse in the surgery area appeared. Complaints of severe pain in the liver and pain in the relapse area. Objectively: medium severity condition, skin integument pallor, a purple tumor-like mass on the right forearm with a 4×5×5 cm pronounced edema. […] Began treatment with the preparation according to the following regimen: 5 ml of a 0.000001% sterile solution of malachite green oxalate was injected under the tumor base. Later, a 2% ointment with the same preparation was applied to the skin surface. Two times a day, 500 mg of malachite green oxalate diluted in 500 ml of saline was administered intravenously. Also, 5 g of malachite green oxalate was diluted in water and administered by mouth, as well as in the form of microclysters. […] The course had continued for 3 months.

[7] = system: migraine; test: Example 8: patient O., migraine; settings: third day; 2 g in 100 ml of water on an empty stomach two times a day
Procedure: Patient five.
Complaints of periodic excruciating pain in the right temporal area. Diagnosis: migraine. Prescribed treatment: malachite green oxalate preparation, 2 g dissolved in 100 ml of water on an empty stomach two times a day.

How did the pain syndrome ([1]; after 7 days of treatment) turn out when `CN(C)c1ccc(C(=C2C=CC(=[N+](C)C)C=C2)c2ccc(N(C)C)cc2)cc1` [crystal violet] was run?
Its pain syndrome is “disappeared”.

And the dyspnea ([1]; after 7 days, 16 drops of 1% solution by mouth three times a day and microclysters)?
Its dyspnea is “abated”.

What about the pain ([1]; after the 12-month course) of the same molecule?
Its pain is “No pain”.

What about the weight ([1]; after the 12-month course) of the same molecule?
The weight was “restored”.

And the “right kidney tumor and lung metastases” value ([1]; during therapy, 1% suppositories and inhaling for 12 months with breaks)?
Its value is “disappeared”.

What about the blood tests ([1]; over 3 weeks) of the same molecule?
Its blood tests is “normalized”.

How did the brain metastases ([2]; after six months of treatment) turn out when `CN(C)c1ccc(C(=C2C=CC(=[N+](C)C)C=C2)c2ccc(N(C)C)cc2)cc1` [gentian violet] was run?
The brain metastases was “No brain metastases are observed”.

What about the dyspnea ([2]; after six months of treatment) of the same molecule?
The dyspnea was “abated”.

What about the pain syndrome ([2]; after six months of treatment) of the same molecule?
The pain syndrome was “practically absent”.

And the blood tests ([2]; against the background of treatment)?
The blood tests was “normalized”.

And the “pain syndrome after the sessions” value ([2]; first week, for several hours after sessions, 1% solution by mouth, microclyster, suppository)?
Its value is “substantial improvement of the pain syndrome”.

And the “patient's condition” value ([2]; third week of treatment)?
Its value is “improved”.

What about the “MTS in the brain in CT” value ([2]; three months after start of treatment) of the same molecule?
The value was “no MTS in the brain were observed”.

What about the pain ([3]; after 3 days, 3 mg per 50 kg of weight two times a day) of the same molecule?
Its pain is “abated significantly”.

What about the return of pain ([3]; hereinafter) of the same molecule?
Its return of pain is “has not returned”.

What about the pain ([3]; later than 3 days (then)) of the same molecule?
The pain was “stopped completely”.

And the pain ([4]; after a week)?
Its pain is “disappeared completely”.

What about the pain ([4]; after three days, 0.0004 mg/kg of weight once a day) of the same molecule?
The pain was “abated”.

What does the source list for malachite green oxalate?
bladder tumor and pelvic metastases ([5]; complete course of 6 months): disappeared; return of pain ([5]; complete course of 6 months): did not return; weight ([5]; complete course of 6 months): restored; blood tests ([5]; fourth week): normalized; decrease of pelvic bone metastases ([5]; over the 4-month course): 1.5 cm; use of narcotic analgesics by the patient ([5]; previously 5.0 ml of morphine three times a day): declined taking narcotic analgesics; pain in the area of metastases ([5]; sixth day, 20 drops of 1% solution by mouth and microclysters): got duller; pain in the area of metastases ([5]; tenth day): disappeared completely; blood tests ([6]; 4th week): normalized; return of pain ([6]; complete course of 6 months): did not return; weight ([6]; complete course of 6 months): restored; decrease of liver metastasis ([6]; during the 3-month course, baseline 4×5×4 cm): 1.5 cm; use of narcotics by the patient ([6]; fifth day after the start of treatment): declined taking narcotics; pain in the area of metastases ([6]; sixth day, injection under tumor, 2% ointment, intravenous, by mouth, microclysters): became duller; use of narcotic analgesics by the patient ([6]; stated after the tenth day, previously 3.0 ml of morphine four times a day): declined taking narcotic analgesics; pain in the area of metastases ([6]; tenth day): disappeared completely; pain [7]: abated and has not recurred
